Assays:
[1] = molecular target: T1, Cdk13/CycK (Homo sapiens, UniProt Q14004); assay: SPR single-cycle kinetics, active Cdk13*/CycK; details: T-loop phosphorylated active kinase (CAK1 coexpressed), 1:1 binding model
T1 construct: The kinase domain of human Cdk13 (residues 694–1039, UniProt Q14004); made in house; host or cells: Sf9 insect cells, co-expressed with CAK1
Procedure: The protein kinases were immobilized on a CM5 chip using the amine-coupling method. […] The fully active and T-loop phosphorylated kinase preparations of Cdk12∗/CycK and Cdk13∗/CycK were obtained through coexpression with Cdk-activating kinase 1 (CAK1) from Saccharomyces cerevisiae. […] For comparison, we measured the affinity of NVP-2 for active kinases Cdk12∗/CycK and its proposed target Cdk9/CycT1 by SPR.
SPR experiments were conducted on a Biacore 8K (Cytiva) device. The system was equilibrated in running buffer (20 mM Tris pH 8, 150 mM NaCl, 1 mM tris(2-carboxyethyl)phosphine, 0.1 mM MgCl2, 0.05% Tween20, and 2% DMSO) at 25 °C. Flow cell 1 and 2 surfaces of a CM5 sensor chip (Cytiva) were conditioned with 50 mM NaOH at a flow rate of 30 μl/min for 15 s and subsequently activated with a 1:1 mix of 0.1 M N-hydroxysuccinimide (NHS) and 0.1 M 3-(N,N-dimethylamino) propyl-N-ethyl-carbodiimide (EDC) at a flow rate of 10 μl/min for 7 min. The flow system was washed with 1 M enthanolamine (pH 8). WT and mutant kinases Cdk12/CycK, Cdk13/CycK and Cdk9/CycT1 were diluted in Mes (pH 6.5) to a final concentration of 2 μM. Immobilization of kinases was performed in running buffer without DMSO using the amine coupling method on flow cell 2 surface for 160 s at a flow rate of 10 μl/min. Free binding sites were blocked with 1 M ethanolamine pH 8.0 (10 μl/min) for 7 min. […]

[2] = test system: T2, HIPK3; assay: radioactive in vitro kinase assay, HIPK3; format: biochemical, human; details: 0, 0.1, 1, 10, 100 μM compound, 0.2 μM kinase, 0.2 mM ATP
T2 construct: human HIPK3 (residues 159–562, UniProt Q9H422); made in house; host or cells: Sf9 insect cells
Procedure: (§1) Radioactive kinase activity assays were performed in a total volume of 15 μl per sample in kinase assay buffer (50 mM Hepes/pH 7.6, 34 mM KCl, 7 mM MgCl2, 5 mM β-glycerol phosphate, and 2.5 mM dithioerythritol). Preincubation of 0.2 μM or 0.02 μM recombinant protein kinase with indicated concentrations of respective inhibitor and 0.2 to 2 mM ATP containing 0.45 mCi [^32P]-γ-ATP/ml (PerkinElmer) was carried out for 5 min. Kinase reactions were started by addition of substrate protein (10 μM GST-Rb1 for Cdk4/CycD3, 10 μM GST-CTD[52] for Cdk7/CycH/MAT1, 50 μM His-c-Myc for all others) and incubated for 20 min at 30 °C in a shaking incubator at 300 rpm. For pS7-CTD[3] peptide, the substrate concentration was increased to 100 μM and assays were performed for 60 min. Reactions were terminated by the addition of EDTA to a final concentration of 50 mM. […] Radioactive counts were determined in a Beckman Liquid Scintillation Counter (Beckman Coulter) for 1 min. […] IC50 values were extracted from triplicate measurements by sigmoidal curve fitting using DataGraph (v. 5.0; https://www.visualdatatools.com/DataGraph/) or were determined by applying the Morrison quadratic equation for tight binding inhibitors using GraphPad Prism 10 (https://www.graphpad.com/) ([40]).

[3] = test system: T3, Cdk4/CycD3; assay: radioactive in vitro kinase assay, Cdk4/CycD3; format: biochemical, human; details: 0, 0.1, 1, 10, 100 μM compound, 0.2 μM kinase, 0.2 mM ATP
T3 construct: GST (of the complex); made in house; host or cells: Sf9 insect cells
Procedure: as §1

[4] = test system: T4, HIPK2; assay: radioactive in vitro kinase assay, HIPK2; format: biochemical, human; details: 0, 0.1, 1, 10, 100 μM compound, 0.2 μM kinase, 0.2 mM ATP
T4 construct: human HIPK2 (residues 160–563, UniProt Q9H2X6); made in house; host or cells: Sf9 insect cells
Procedure: as §1

[5] = molecular target: T5, Cdk9/CycT1 (Homo sapiens, UniProt P50750); assay: radioactive in vitro kinase assay, Cdk9/CycT1; format: biochemical; details: 0, 0.1, 1, 10, 100 μM compound, 0.2 μM kinase, 0.2 mM ATP
T5 construct: Full-length, human, WT Cdk9 (residues 1–372, UniProt P50750); made in house; host or cells: Cdk9: Sf9 insect cells; CycT1: E. coli
Procedure: as §1

T1 sequence (Q14004 694-1039): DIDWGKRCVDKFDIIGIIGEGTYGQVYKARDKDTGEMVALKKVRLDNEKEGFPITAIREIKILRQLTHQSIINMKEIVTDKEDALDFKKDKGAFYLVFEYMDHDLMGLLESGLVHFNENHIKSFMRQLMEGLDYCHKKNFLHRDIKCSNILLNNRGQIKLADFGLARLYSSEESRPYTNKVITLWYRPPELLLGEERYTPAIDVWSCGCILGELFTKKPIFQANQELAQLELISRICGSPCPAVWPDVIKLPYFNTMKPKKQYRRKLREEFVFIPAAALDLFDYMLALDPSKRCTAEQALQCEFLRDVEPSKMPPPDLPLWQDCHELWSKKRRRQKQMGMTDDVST
T1 sequence (O75909 1-267 partner limits assumed): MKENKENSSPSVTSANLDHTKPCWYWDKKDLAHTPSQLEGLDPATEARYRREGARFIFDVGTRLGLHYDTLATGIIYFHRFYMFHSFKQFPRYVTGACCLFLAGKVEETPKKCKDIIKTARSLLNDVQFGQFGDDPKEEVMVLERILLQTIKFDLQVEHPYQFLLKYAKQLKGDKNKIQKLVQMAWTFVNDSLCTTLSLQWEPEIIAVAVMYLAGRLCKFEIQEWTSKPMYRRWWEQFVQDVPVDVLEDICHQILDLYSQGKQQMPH
T5 sequence (P50750 whole entry, the tested form may be a part): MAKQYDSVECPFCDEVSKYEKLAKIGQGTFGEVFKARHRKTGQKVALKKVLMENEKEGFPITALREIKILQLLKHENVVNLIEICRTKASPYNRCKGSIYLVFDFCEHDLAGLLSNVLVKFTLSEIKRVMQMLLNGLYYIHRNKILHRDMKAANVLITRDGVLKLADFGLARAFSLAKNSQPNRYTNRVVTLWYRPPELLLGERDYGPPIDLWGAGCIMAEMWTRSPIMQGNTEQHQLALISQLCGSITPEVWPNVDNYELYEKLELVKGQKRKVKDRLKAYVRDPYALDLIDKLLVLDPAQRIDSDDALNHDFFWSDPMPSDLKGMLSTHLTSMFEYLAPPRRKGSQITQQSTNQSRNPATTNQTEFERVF
T5 sequence (O60563 1-272 partner limits assumed): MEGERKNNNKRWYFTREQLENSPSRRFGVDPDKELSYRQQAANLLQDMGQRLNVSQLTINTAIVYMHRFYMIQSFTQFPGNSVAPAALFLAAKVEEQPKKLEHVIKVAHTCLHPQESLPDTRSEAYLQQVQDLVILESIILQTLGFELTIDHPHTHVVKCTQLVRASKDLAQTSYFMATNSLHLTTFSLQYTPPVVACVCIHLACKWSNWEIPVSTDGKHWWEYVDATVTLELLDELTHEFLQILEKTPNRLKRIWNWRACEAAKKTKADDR

## Cn1cc(-n2cnc3c(NCc4nc5cc(Cl)c(Cl)cc5[nH]4)nc(N4CCOCC4)nc32)cn1 [SR-4835]
[1]
  Kd: 168 nM
[2]
  inhibition of HIPK3 activity: not inhibited
[3]
  inhibition of Cdk4/CycD3 activity: minimal decrease in kinase activity
[4]
  inhibition of HIPK2 activity: not inhibited
[5]
  inhibition of Cdk9 activity: no inhibitory activity

Reference: paper PMC10767194 (The Journal of Biological Chemistry, 2023)
